Test results: the NIST ThermoML archive (doi:10.1021/je060339m)

Settings: Liquid

CCCOC(C)=O [propyl ethanoate]
Settings	mass density [kg/m3]
298.15 K, 100 kPa	882
298.15 K, 1000 kPa	882.5
298.15 K, 2000 kPa	883.4
298.15 K, 3000 kPa	884.3
298.15 K, 3300 kPa	884.6
298.15 K, 5000 kPa	886.4
298.15 K, 10000 kPa	890.7
298.15 K, 15000 kPa	894.8
298.15 K, 20000 kPa	898.7
298.15 K, 25000 kPa	902.5
298.15 K, 30000 kPa	906.9
298.15 K, 35000 kPa	911.7
303.15 K, 100 kPa	876.2
303.15 K, 1000 kPa	876.8
303.15 K, 2000 kPa	877.7
303.15 K, 3000 kPa	878.8
303.15 K, 3300 kPa	879
303.15 K, 5000 kPa	880.8
303.15 K, 10000 kPa	885.3
303.15 K, 15000 kPa	889.5
303.15 K, 20000 kPa	893.5
303.15 K, 25000 kPa	897.4
303.15 K, 30000 kPa	902
303.15 K, 35000 kPa	906.9
308.15 K, 100 kPa	870.5
308.15 K, 1000 kPa	871.2
308.15 K, 2000 kPa	872.2
308.15 K, 3000 kPa	873.2
308.15 K, 3300 kPa	873.4
308.15 K, 5000 kPa	875.3
308.15 K, 10000 kPa	879.9
308.15 K, 15000 kPa	884.3
308.15 K, 20000 kPa	888.4
308.15 K, 25000 kPa	892.4
308.15 K, 30000 kPa	897.2
308.15 K, 35000 kPa	902.3
313.15 K, 100 kPa	864.9
313.15 K, 1000 kPa	865.5
313.15 K, 2000 kPa	866.6
313.15 K, 3000 kPa	867.6
313.15 K, 3300 kPa	867.9
313.15 K, 5000 kPa	869.9
313.15 K, 10000 kPa	874.7
313.15 K, 15000 kPa	879.2
313.15 K, 20000 kPa	883.5
313.15 K, 25000 kPa	887.6
313.15 K, 30000 kPa	892.6
313.15 K, 35000 kPa	897.7
318.15 K, 100 kPa	859.3
318.15 K, 1000 kPa	859.8
318.15 K, 2000 kPa	860.9
318.15 K, 3000 kPa	862.1
318.15 K, 3300 kPa	862.4
318.15 K, 5000 kPa	864.4
318.15 K, 10000 kPa	869.4
318.15 K, 15000 kPa	874.1
318.15 K, 20000 kPa	878.5
318.15 K, 25000 kPa	882.8
318.15 K, 30000 kPa	887.9
318.15 K, 35000 kPa	893.2
323.15 K, 100 kPa	853.6
323.15 K, 1000 kPa	854.8
323.15 K, 2000 kPa	855.8
323.15 K, 3000 kPa	856.9
323.15 K, 3300 kPa	857.1
323.15 K, 5000 kPa	859
323.15 K, 10000 kPa	864.1
323.15 K, 15000 kPa	869
323.15 K, 20000 kPa	873.5
323.15 K, 25000 kPa	877.9
323.15 K, 30000 kPa	883.2
323.15 K, 35000 kPa	888.8
328.15 K, 100 kPa	848
328.15 K, 1000 kPa	848.7
328.15 K, 2000 kPa	849.9
328.15 K, 3000 kPa	851
328.15 K, 3300 kPa	851.3
328.15 K, 5000 kPa	853.7
328.15 K, 10000 kPa	859
328.15 K, 15000 kPa	864
328.15 K, 20000 kPa	868.7
328.15 K, 25000 kPa	873.3
328.15 K, 30000 kPa	878.8
328.15 K, 35000 kPa	884.4
333.15 K, 100 kPa	842.5
333.15 K, 1000 kPa	843.6
333.15 K, 2000 kPa	844.8
333.15 K, 3000 kPa	845.9
333.15 K, 3300 kPa	846.2
333.15 K, 5000 kPa	848.3
333.15 K, 10000 kPa	853.9
333.15 K, 15000 kPa	859
333.15 K, 20000 kPa	863.9
333.15 K, 25000 kPa	868.6
333.15 K, 30000 kPa	874.3
333.15 K, 35000 kPa	880.1
338.15 K, 100 kPa	836.7
338.15 K, 1000 kPa	838
338.15 K, 2000 kPa	839.2
338.15 K, 3000 kPa	840.5
338.15 K, 3300 kPa	840.8
338.15 K, 5000 kPa	842.8
338.15 K, 10000 kPa	848.6
338.15 K, 15000 kPa	853.9
338.15 K, 20000 kPa	859
338.15 K, 25000 kPa	863.8
338.15 K, 30000 kPa	869.6
338.15 K, 35000 kPa	875.5
343.15 K, 100 kPa	831.2
343.15 K, 1000 kPa	832.3
343.15 K, 2000 kPa	833.7
343.15 K, 3000 kPa	834.9
343.15 K, 3300 kPa	835.3
343.15 K, 5000 kPa	837.6
343.15 K, 10000 kPa	843.6
343.15 K, 15000 kPa	849.1
343.15 K, 20000 kPa	854.3
343.15 K, 25000 kPa	859.2
343.15 K, 30000 kPa	865
343.15 K, 35000 kPa	871.2
348.15 K, 100 kPa	825.6
348.15 K, 1000 kPa	826.8
348.15 K, 2000 kPa	828.1
348.15 K, 3000 kPa	829.5
348.15 K, 3300 kPa	829.9
348.15 K, 5000 kPa	832.2
348.15 K, 10000 kPa	838.3
348.15 K, 15000 kPa	844.1
348.15 K, 20000 kPa	849.5
348.15 K, 25000 kPa	854.5
348.15 K, 30000 kPa	860.6
348.15 K, 35000 kPa	866.8
353.15 K, 100 kPa	820
353.15 K, 1000 kPa	821.2
353.15 K, 2000 kPa	822.6
353.15 K, 3000 kPa	824
353.15 K, 3300 kPa	824.4
353.15 K, 5000 kPa	826.9
353.15 K, 10000 kPa	833.3
353.15 K, 15000 kPa	838.8
353.15 K, 20000 kPa	844.8
353.15 K, 25000 kPa	850
353.15 K, 30000 kPa	856.4
353.15 K, 35000 kPa	862.7
358.15 K, 100 kPa	811.6
358.15 K, 1000 kPa	812.9
358.15 K, 2000 kPa	814.4
358.15 K, 3000 kPa	815.8
358.15 K, 3300 kPa	816.3
358.15 K, 5000 kPa	818.6
358.15 K, 10000 kPa	825.3
358.15 K, 15000 kPa	831.5
358.15 K, 20000 kPa	837.2
358.15 K, 25000 kPa	842.8
363.15 K, 100 kPa	804.8
363.15 K, 1000 kPa	806.9
363.15 K, 2000 kPa	808.4
363.15 K, 3000 kPa	810
363.15 K, 3300 kPa	810.4
363.15 K, 5000 kPa	812.9
363.15 K, 10000 kPa	819.9
363.15 K, 15000 kPa	826.2
363.15 K, 20000 kPa	832.1
363.15 K, 25000 kPa	837.7
363.15 K, 30000 kPa	844.4
368.15 K, 1000 kPa	801
368.15 K, 2000 kPa	802.7
368.15 K, 3000 kPa	804.3
368.15 K, 3300 kPa	804.8
368.15 K, 5000 kPa	807.4
368.15 K, 10000 kPa	814.6
368.15 K, 15000 kPa	821.2
368.15 K, 20000 kPa	827.3
368.15 K, 25000 kPa	833.1
373.15 K, 1000 kPa	795.5
373.15 K, 2000 kPa	797.2
373.15 K, 3000 kPa	798.9
373.15 K, 3300 kPa	799.5
373.15 K, 5000 kPa	802.3
373.15 K, 10000 kPa	809.8
373.15 K, 15000 kPa	816.6
373.15 K, 20000 kPa	822.9
373.15 K, 25000 kPa	828.9
378.15 K, 1000 kPa	789.4
378.15 K, 2000 kPa	791.3
378.15 K, 3000 kPa	793
378.15 K, 3300 kPa	793.6
378.15 K, 5000 kPa	796.3
378.15 K, 10000 kPa	803.3
378.15 K, 15000 kPa	811.3
378.15 K, 20000 kPa	817.7
378.15 K, 25000 kPa	824
378.15 K, 30000 kPa	831.2
383.15 K, 1000 kPa	783.6
383.15 K, 2000 kPa	785.5
383.15 K, 3000 kPa	787.3
383.15 K, 3300 kPa	788.2
383.15 K, 5000 kPa	791.2
383.15 K, 10000 kPa	799.2
383.15 K, 15000 kPa	806.6
383.15 K, 20000 kPa	813.2
383.15 K, 25000 kPa	819.7
388.15 K, 1000 kPa	777.9
388.15 K, 2000 kPa	779.8
388.15 K, 3000 kPa	781.6
388.15 K, 3300 kPa	782.1
388.15 K, 5000 kPa	785.4
388.15 K, 10000 kPa	793.8
388.15 K, 15000 kPa	801.5
388.15 K, 20000 kPa	808.5
388.15 K, 25000 kPa	815.2
388.15 K, 30000 kPa	823.2
393.15 K, 1000 kPa	771.8
393.15 K, 2000 kPa	773.9
393.15 K, 3000 kPa	775.9
393.15 K, 3300 kPa	776.4
393.15 K, 5000 kPa	779.7
393.15 K, 10000 kPa	788.6
393.15 K, 15000 kPa	796.5
393.15 K, 20000 kPa	803.8
393.15 K, 25000 kPa	810.7
